In data set [1] the target is T1, Prostaglandin D2 receptor 2 (Homo sapiens, UniProt Q9Y5Y4).
T1 sequence (Q9Y5Y4 whole entry): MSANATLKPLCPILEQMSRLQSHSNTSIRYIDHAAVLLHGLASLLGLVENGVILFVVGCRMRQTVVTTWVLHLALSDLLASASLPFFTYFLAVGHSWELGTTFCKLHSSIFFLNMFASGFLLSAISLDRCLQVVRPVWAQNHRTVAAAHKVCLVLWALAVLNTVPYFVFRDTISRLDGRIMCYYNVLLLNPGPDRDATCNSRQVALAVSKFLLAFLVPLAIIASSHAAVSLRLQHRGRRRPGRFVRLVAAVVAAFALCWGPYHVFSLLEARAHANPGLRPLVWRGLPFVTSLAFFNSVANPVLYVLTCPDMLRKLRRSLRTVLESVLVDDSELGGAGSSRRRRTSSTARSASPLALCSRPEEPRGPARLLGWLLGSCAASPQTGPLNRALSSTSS
The data set can be described thus: biochemical.
Description: Displacement of [3H]PGD2 from human CRTh2 expressed in HEK cell membranes after 60 mins by scintillation counting method

The nature of data set [2]: AUC (0 to 6 hrs) in rat at 0.5 mg/kg, iv. Type of data set: ADME, organism-based. More on the design: time < 6 hr, dose 0.5 mg/kg, route intravenous. The conditions noted are these: in vivo.
Data set [3] is described as follows: Intrinsic clearance in rat hepatocytes assessed per million cells. Type of data set: ADME, cell-based, Hepatocyte. The following applies: read-out: CLH.
In data set [4] the target is T1, Prostaglandin D2 receptor 2.
Description: Antagonist activity at human CRTh2 expressed in CHOK1 cells assessed as inhibition of PGD2-induced beta-arrestin recruitment incubated for 30 mins followed by PGD2 stimulation measured after 60 mins by PathHunter based chemiluminescence assay
For data set [5] the target is unchanged. The source holds these as a separate data set.
The target is the same in data set [6]. The data set can be described thus: […] activity at human CRTh2 expressed in HEK cells assessed as forskolin-induced intracellular cAMP accumulation by ELISA based chemiluminescence assay. In kind it is functional, cell-based. (In general: Changes in cAMP serve as a functional read-out for many G protein-coupled receptors.)
A short description of data set [7]: AUC (0 to 6 hrs) in rat at 2 mg/kg, iv. More on the design: time < 6 hr, dose 2 mg/kg, route intravenous. Type of data set: ADME, organism-based. The conditions noted are these: in vivo.

The term Ki denotes the dissociation constant of the complex between target and ligand, obtained from inhibition or displacement. Read a high Ki as lower affinity. For orientation: AUC(0-t) means exposure summed from dosing to a finite time, without extrapolation to infinity. One may read the IC50 as the concentration needed to halve the response being measured. Lower therefore signals inhibition by little substance. As a reminder, the EC50 is the midpoint of the concentration-response curve.

Compound `O=C(O)CCC(=O)N(C1CC1)[C@H]1c2ccccc2N(C(=O)c2cccc(F)c2)[C@H]2CC[C@H]21` showed a Ki in data set [1] of 8.1 nM. Also, the AUC(0-t) at 6 h in data set [2] was determined as 0.3 µM·h. The hepatocyte CLint in data set [3] worked out at 16 µL/min/1e6 cells. Also, in data set [4], the midpoint of inhibition, the IC50, lay at 9.3 nM.

In data set [1], `O=C(O)CCC(=O)N(C1CC1)[C@H]1c2ccccc2N(C(=O)OCc2ccc(F)cc2)[C@H]2CCC[C@H]21` showed a Ki of 12 nM. In data set [2], this compound yielded an area under the curve AUC(0-t) at 6 h of 0.27 µM·h.

As to `O=C(O)COC(=O)N(C1CC1)[C@H]1c2ccccc2N(C(=O)c2ccc(OC(F)(F)F)cc2)[C@H]2CC[C@H]21`, the values for the IC50 in data set [5] and in data set [4] were 0.9 nM and 1.4 nM, respectively. This compound also registered a Ki in data set [1] of 2.5 nM. In addition, the hepatocyte CLint in data set [3] stood at 18 µL/min/1e6 cells.

`O=C(O)COC(=O)N(C1CC1)[C@H]1c2ccccc2N(C(=O)c2cccc(F)c2)[C@H]2CC[C@H]21`: the IC50 in data set [5] stood at 0.8 nM; in data set [4] it was 1.1 nM. In data set [1], this compound displayed an inhibition constant (Ki) of 4.1 nM. Besides, the hepatocyte CLint in data set [3] was 20 µL/min/1e6 cells.

With `O=C(O)CCC(=O)N(C1CC1)[C@H]1c2ccccc2N(C(=O)c2ccc(F)cc2)[C@H]2CC[C@H]21`, the IC50 in data set [5] came out at 20 nM; in data set [4], 12 nM. Moreover, the Ki in data set [1] was found to be 7.3 nM. In data set [2], this compound returned an AUC(0-t) at 6 h of 0.46 µM·h. Besides, in data set [3], the hepatocyte CLint came out at 14 µL/min/1e6 cells.

In data set [2], `O=C(O)CCC(=O)N(C1CC1)[C@H]1c2ccc(F)cc2N(C(=O)c2ccc(OC(F)(F)F)cc2)[C@H]2CCC[C@H]21` had an AUC(0-t) at 6 h of 0.043 µM·h.

For `O=C(O)CCC(=O)N(C1CC1)[C@H]1c2ccccc2N(C(=O)c2ccc(OC(F)(F)F)cc2)[C@H]2CCCC21` (single isomer, unassigned), the Ki in data set [1] amounted to 7 nM. This compound also yielded an AUC(0-t) at 6 h in data set [2] of 0.62 µM·h.

For `O=C(O)CCC(=O)N(C1CC1)[C@H]1c2ccccc2N(C(=O)c2cccc(OC(F)(F)F)c2)[C@H]2CC[C@H]21`, in data set [1], the Ki came to 5 nM. In data set [2], this compound returned an AUC(0-t) at 6 h of 0.31 µM·h. In addition, the hepatocyte CLint in data set [3] was 15 µL/min/1e6 cells. Moreover, the IC50 in data set [4] amounted to 43 nM.

Compound `CCN(c1nc(C(=O)O)cs1)[C@H]1c2ccccc2N(C(=O)OCc2ccccc2)[C@H]2CCC[C@@H]12` came in with an IC50 in data set [5] of 2920 nM. Moreover, the EC50 in data set [6] turned out to be 12 nM. Affinity in data set [1] was put at a Ki of 51 nM.

With `O=C(O)CCC(=O)N(C1CC1)[C@H]1c2cc(F)c(Cl)cc2N(C(=O)c2ccc(OC(F)(F)F)cc2)[C@H]2CCC[C@H]21`, the values for the IC50 in data set [5] and in data set [4] were 18 nM and 12 nM, respectively. This compound displayed an inhibition constant Ki in data set [1] of 3.4 nM. In data set [2], the AUC(0-t) at 6 h came to 1.05 µM·h.

`O=C(O)CCC(=O)N(C1CC1)[C@H]1c2ccccc2N(C(=O)c2ccc(OC(F)(F)F)cc2)[C@H]2CC[C@H]21`: the hepatocyte CLint in data set [3] was determined as 13 µL/min/1e6 cells.

As for `O=C(O)CCC(=O)N(C1CC1)[C@H]1c2cc(F)ccc2N(C(=O)c2ccc(SC(F)(F)F)cc2)[C@H]2CCC[C@H]21`, the IC50 in data set [5] is 12 nM; in data set [4], 2.4 nM. The same compound showed an inhibition constant (Ki) in data set [1] of 8.4 nM. The exposure AUC(0-t) at 6 h in data set [7] stood at 1.87 µM·h.

`O=C(O)CCC(=O)N(C1CC1)[C@H]1c2ccc(Cl)cc2N(C(=O)c2ccc(OC(F)(F)F)cc2)[C@H]2CCC[C@H]21`: the IC50 amounted to 110 nM in data set [5] and 59 nM in data set [4]. In data set [1], this compound displayed a Ki of 2.3 nM.

`C[C@@H](OC(=O)N1c2ccccc2[C@H](N(C(=O)CCC(=O)O)C2CC2)[C@@H]2CCC[C@@H]21)c1ccc(F)cc1`: the AUC(0-t) at 6 h in data set [2] was determined as 0.63 µM·h.

Compound `C[C@H](OC(=O)N1c2ccccc2[C@H](N(C(=O)CCC(=O)O)C2CC2)[C@@H]2CCC[C@@H]21)c1ccc(F)cc1` yielded an AUC(0-t) at 6 h in data set [2] of 0.32 µM·h.

`O=C(O)CCC(=O)N(C1CC1)C1c2ccccc2N(C(=O)OCc2ccccc2)C2CCC21` (racemic) displayed an IC50 in data set [5] of 210 nM. In data set [1], this compound returned a Ki of 25 nM.

In turn, `O=C(O)CCC(=O)N(C1CC1)C1c2ccccc2N(C(=O)OCc2ccccc2)C2CCCCC21` (racemic) showed an IC50 in data set [5] of 175 nM. Besides, the affinity in data set [1] corresponds to a Ki of 32 nM.

On to `O=C(O)COC(=O)N(C1CC1)[C@H]1c2ccccc2N(C(=O)c2ccc(F)cc2)[C@H]2CC[C@H]21`, for which the IC50 in data set [5] is 2 nM; in data set [4] it was 1.4 nM. The inhibition constant Ki in data set [1] was 3.5 nM. Further, the hepatocyte CLint in data set [3] worked out at 13 µL/min/1e6 cells.

(Values after ChEMBL document CHEMBL4196118, “Discovery of MK-8318, a Potent and Selective CRTh2 Receptor Antagonist for the Treatment of Asthma” (ACS Med Chem Lett, 2018).)
